Assay results: article PMC5745808 (Biochemistry, 2016)
Read-outs that look alike come from different tables or passages of the source. Peptide text beside a SMILES is read from it. * marks the point of attachment. Cbz = O=C(OCc1ccccc1)*

What was measured:
Mtb20SOG [1] = target: T1, Mtb20SOG (Mycobacterium tuberculosis, UniProt P9WHT9); assay: biochemical
M. tuberculosis = settings: under nitrosative stress; ref [20]; cited from earlier work
Mtb20SOG [2] = target: T1, Mtb20SOG; settings: ref [20], cited from earlier work
i-20S β5i = i-20S β5i (Homo sapiens, UniProt P20618+P28062); settings: ref [20], cited from earlier work
c-20S β5c = c-20S β5c (Homo sapiens, UniProt P20618+P28074); settings: ref [20], cited from earlier work

T1 sequence (P9WHT9 58-291): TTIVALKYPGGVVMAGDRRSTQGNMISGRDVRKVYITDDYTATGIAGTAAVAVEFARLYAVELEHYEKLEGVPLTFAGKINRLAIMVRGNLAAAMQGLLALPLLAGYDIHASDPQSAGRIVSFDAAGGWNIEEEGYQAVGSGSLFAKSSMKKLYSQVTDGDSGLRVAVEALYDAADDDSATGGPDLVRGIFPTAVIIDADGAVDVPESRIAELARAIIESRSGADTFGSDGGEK
T1 sequence (P9WHU1 9-248 partner): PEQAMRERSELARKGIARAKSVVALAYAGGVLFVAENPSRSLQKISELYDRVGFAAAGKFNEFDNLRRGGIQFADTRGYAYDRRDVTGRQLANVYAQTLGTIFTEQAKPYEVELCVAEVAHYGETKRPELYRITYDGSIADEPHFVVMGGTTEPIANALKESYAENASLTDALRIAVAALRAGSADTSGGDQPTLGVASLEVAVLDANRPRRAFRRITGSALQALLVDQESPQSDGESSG

**Q.** For `CC(C)C[C@@H](C=O)NC(=O)[C@H](CC(C)C)NC(=O)[C@H](CC(C)C)NC(=O)OCc1ccccc1` [MG-132] (Cbz-Leu-Leu-Leu-aldehyde), which IC50 (Mtb20SOG [1]) is on record?
**A.** Its IC50 is 1.71 ± 0.079 µM.

**Q.** With `CCN(CC)C(=O)C[C@H](NC(=O)CCc1ccccc1)C(=O)N[C@@H](Cc1ccc(F)cc1)C(=O)NCc1cccc2ccccc12` [DPLG-2] as the compound, how does the “bactericidal activity against nonreplicating bacteria” value (M. tuberculosis) read?
**A.** The value was “bactericidal activity”.

**Q.** What about the “more potent against Mtb20SOG than DPLG-4” value (Mtb20SOG [2]; DPLG-4 has a 4-isopropyl phenyl P1 group) of the same compound?
**A.** Its value is 51 fold.

**Q.** What about the “more potent against Mtb20SOG than ML9” value (Mtb20SOG [2]; ML9 has a 2,4-difluorobenzyl P1 group) of the same compound?
**A.** The value was 4 fold.

**Q.** What about the IC50 (Mtb20SOG [2]; read-out: IC50 Mtb20SOG (LLVY), suc-LLVY-AMC) of the same compound?
**A.** Its IC50 is 0.015 µM.

**Q.** And the “SIapp IC50β5i/IC50Mtb20SOG” value (i-20S β5i; apparent selectivity index)?
**A.** The value was 3647.

**Q.** What about the IC50 (i-20S β5i; read-out: IC50 i-20S β5i (ANW), Ac-ANW-AMC) of the same compound?
**A.** The IC50 was 54.7 µM.

**Q.** And the “affinity for Mtb 20S stronger than for human i-20S” value (i-20S β5i)?
**A.** The value was 3647 fold.

**Q.** And the “SIapp IC50β5c/IC50Mtb20SOG” value (c-20S β5c; apparent selectivity index)?
**A.** The value was 4667.

**Q.** And the IC50 (c-20S β5c; read-out: IC50 c-20S β5c (LLVY), suc-LLVY-AMC)?
**A.** The IC50 was 70 µM.

**Q.** And the “affinity for Mtb 20S stronger than for human c-20S” value (c-20S β5c)?
**A.** Its value is 4667 fold.
